PubChem BioAssay AID330 (DTP/NCI, 2004)
“And” between values parts separate entries of the source, which are not always exact repeats. Identical values can stand only once. Inconclusive results and toxic doses are left out.

Test system: P388 leukemia ip, CD2F1 mice, survival T/C
Test: NCI In Vivo Anticancer Drug Screen. Data for tumor model P388 Leukemia (intraperitoneal) in CD2F1 (CDF1) mice
Conditions: endpoint: median survival time, higher = longer survival
How it was run: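 Mice carrying the transplanted tumor received test compound or vehicle. Survival was recorded in each group, and the value is the treated-group measurement divided by that of the vehicle-treated control group.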

[1] = dose: 50.0 mg/kg/injection, schedule: Q01DX009 (ip), vehicle: saline with Tween-80
[2] = dose: 100.0 mg/kg/injection, schedule: Q01DX009 (ip), vehicle: saline with Tween-80

Cc1ccc(-c2cc(-c3cc(-c4ccc(C)cc4)nc(N)n3)nc(N)n2)cc1
T/C (dose: 60.0 mg/kg/injection, schedule: Q01DX005 (ip), vehicle: saline): 90 % of control
T/C (dose: 120.0 mg/kg/injection, schedule: Q01DX005 (ip), vehicle: saline): 96 % of control
T/C (dose: 240.0 mg/kg/injection, schedule: Q01DX005 (ip), vehicle: saline): 97 % of control

COc1cc2c(cc1OCc1ccccc1)C(Cc1cc(Br)sc1Br)=NCC2
T/C (dose: 50.0 mg/kg/injection, schedule: Q01DX005 (ip), vehicle: Klucel (hydroxypropylcellulose) (HPC)): 88 % of control
T/C (dose: 100.0 mg/kg/injection, schedule: Q01DX005 (ip), vehicle: Klucel (hydroxypropylcellulose) (HPC)): 90 % of control
T/C (dose: 200.0 mg/kg/injection, schedule: Q01DX005 (ip), vehicle: Klucel (hydroxypropylcellulose) (HPC)): 92 % of control

CCN(CC)CC(C)Nc1ccc(C)c2sc3ccccc3c(=O)c12 (centres undefined)
T/C (dose: 75.0 mg/kg/injection, schedule: Q01DX009 (ip), vehicle: saline): 175 % of control
T/C (dose: 300.0 mg/kg/injection, schedule: Q01DX009 (ip), vehicle: saline): 100 % of control

CCCCS/C=C1\CCc2cc(OC)ccc2C12CC1=C(CCc3cc(OC)ccc31)C(SCCCC)C2 (centres undefined)
T/C [1]: 94 % of control
T/C [2]: 88 % of control
T/C (dose: 200.0 mg/kg/injection, schedule: Q01DX009 (ip), vehicle: saline with Tween-80): 87 % of control

CC1=CC(=O)C(C(C)C)=CC1=O
T/C (dose: 0.75 mg/kg/injection, schedule: Q01DX009 (ip), vehicle: saline with Tween-80): 100 % of control
T/C (dose: 1.5 mg/kg/injection, schedule: Q01DX009 (ip), vehicle: saline with Tween-80): 104 % of control
T/C (dose: 3.0 mg/kg/injection, schedule: Q01DX009 (ip), vehicle: saline with Tween-80): 104 % of control

c1ccc2c(c1)ncc1cccn12
T/C (dose: 50.0 mg/kg/injection, schedule: Q01DX009 (ip), vehicle: Klucel (hydroxypropylcellulose) (HPC)): 106 % of control
T/C (dose: 100.0 mg/kg/injection, schedule: Q01DX009 (ip), vehicle: Klucel (hydroxypropylcellulose) (HPC)): 107 % of control
T/C (dose: 200.0 mg/kg/injection, schedule: Q01DX009 (ip), vehicle: Klucel (hydroxypropylcellulose) (HPC)): 105 % of control
T/C (dose: 400.0 mg/kg/injection, schedule: Q01DX009 (ip), vehicle: Klucel (hydroxypropylcellulose) (HPC)): 106 % of control

C=C1CC2(CC(C(=C)C)CCC2C)OC1=O (centres undefined)
T/C (dose: 100.0 mg/kg/injection, schedule: Q01DX001 (ip), vehicle: saline): 101 % of control
T/C (dose: 200.0 mg/kg/injection, schedule: Q01DX001 (ip), vehicle: saline): 99 % of control
T/C (dose: 400.0 mg/kg/injection, schedule: Q01DX001 (ip), vehicle: saline): 102 % of control

O=C1C(Cl)=C(Nc2cc(Cl)ccc2Cl)C(=O)c2ccccc21
T/C (dose: 60.0 mg/kg/injection, schedule: Q01DX005 (ip), vehicle: saline with Tween-80): 98 % of control
T/C (dose: 120.0 mg/kg/injection, schedule: Q01DX005 (ip), vehicle: saline with Tween-80): 102 % of control
T/C (dose: 240.0 mg/kg/injection, schedule: Q01DX005 (ip), vehicle: saline with Tween-80): 101 % of control

CC1=CC23C(=O)[C@@H](C=C(COC(=O)c4ccccc4)[C@@H](O)[C@]2(O)[C@H]1OC(=O)c1ccccc1)[C@H]1[C@@H](C[C@H]3C)C1(C)C
T/C (dose: 12.5 micrograms/kg/injection, schedule: Q01DX009 (ip), vehicle: saline with Tween-80): 113 % of control
T/C (dose: 25.0 micrograms/kg/injection, schedule: Q01DX009 (ip), vehicle: saline with Tween-80): 102 % of control
T/C (dose: 50.0 micrograms/kg/injection, schedule: Q01DX009 (ip), vehicle: saline with Tween-80): 106 % of control
T/C (dose: 100.0 micrograms/kg/injection, schedule: Q01DX009 (ip), vehicle: saline with Tween-80): 119 % of control
T/C (dose: 200.0 micrograms/kg/injection, schedule: Q01DX009 (ip), vehicle: saline with Tween-80): 113 % of control
T/C (dose: 281.0 micrograms/kg/injection, schedule: Q01DX009 (ip), vehicle: saline + alcohol): 108 % of control
T/C (dose: 468.0 micrograms/kg/injection, schedule: Q01DX009 (ip), vehicle: saline + alcohol): 89 % of control
T/C (dose: 780.0 micrograms/kg/injection, schedule: Q01DX009 (ip), vehicle: saline + alcohol): 89 % of control

CCCC/C=C/[Se]c1ccccc1
T/C (dose: 25.0 mg/kg/injection, schedule: Q01DX009 (ip), vehicle: saline with Tween-80): 101 % of control
T/C [1]: 151 % of control
T/C [2]: 109 % of control

O=C1N(CCN2CCC3(CC2)OCCO3)CCN1c1cc(Cl)cc(Cl)c1
T/C (dose: 12.5 mg/kg/injection, schedule: Q01DX009 (ip), vehicle: water): 104 % of control and 105 % of control and 113 % of control
T/C (dose: 25.0 mg/kg/injection, schedule: Q01DX009 (ip), vehicle: water): 105 % of control and 112 % of control and 123 % of control
T/C (dose: 100.0 mg/kg/injection, schedule: Q01DX009 (ip), vehicle: water): 105 % of control and 110 % of control
T/C (dose: 200.0 mg/kg/injection, schedule: Q01DX009 (ip), vehicle: water): 108 % of control
